Test results reported in patent US20240335462A1, “SULFUR/PHOSPHORUS-CONTAINING ARYL COMPOUND AND APPLICATION THEREOF” (MEDSHINE DISCOVERY INC., priority 2021, published 2024).

Test system: IL-12/IL-18-induced IFN-γ secretion by mouse immune cells
Test: IL-12/IL-18-induced IFN-γ secretion in mice (serum ELISA)
Format: in vivo, C57BL/6J mice
Experimental: The purpose of this experiment was to evaluate the inhibitory effect of the compound on IL-12/IL-18-induced IFN-γ secretion by immune cells in mice. The IFN-γ protein level in serum samples of mice treated with the compound was detected using the enzyme-linked immunosorbent assay (ELISA) method.
This experiment was conducted twice.
The compounds were all prepared into a clear solution with 10% DMSO+10% solutol+80% (10% HP-β-CD) as a solvent for PO (oral gavage) administration. The frequency of administration was once daily (QD).
• a) According to the grouping, the mice were administered by gavage (P0) with either the compound formulation or solvent control. • b) One hour later, each mouse received an intraperitoneal injection of IL-12 (0.01 μg per mouse) or PBS buffer. • c) One hour after IL-12 administration, each mouse received an intraperitoneal injection of IL-18 (1 μg per mouse) or PBS buffer. • d) Blood was collected three hours after IL-18 administration, and serum was separated.
• a) Prior to use, all reagents were mixed thoroughly to avoid foaming. • b) The number of strips required was determined based on the number of experimental wells (blanks and standards). Duplicate tests were performed for samples (including standards) and blanks. • c) Sample addition: 100 μL/well of the diluted Cytokine standard was added to the standard wells, 100 μL/well of the sample was added to the sample wells, and 100 μL/well of Dilution buffer R (1×) was added to the blank control wells. • d) Detection antibody addition: 50 μL/well of Biotinylated antibody working solution was added. After mixing, the plate was covered with a sealing film and incubated at 37° C. for 90 minutes. • e) Plate washing: The liquid was discarded from the wells, then 300 μL/well of 1× Washing buffer working solution was added, and allowed to stand for 1 minute before the liquid was discarded from the wells. […]
The plate was covered with a sealing film and incubated at 37° C. for 30 minutes. • g) Plate washing: Step 5 was repeated. • h) Color development: 100 μL/well of TMB was added, then the plate was incubated at 37° C. in the dark for 5 to 30 minutes, and the reaction was terminated depending on the intensity of the color (dark blue) in the well. […] Dual wavelengths were recommended for reading the plate, specifically measuring at a measurement wavelength of 450 nm and a reference wavelength of 610 to 630 nm simultaneously.
The expression level of each sample was calculated based on the standard curve, and statistical analysis of the results for each group was performed, including mean and standard error of the mean (SEM). […] All data were analyzed using GraphPad Prism 6.02.

[1] = single PO administration 3 mg/kg
[2] = single PO administration 10 mg/kg

| SMILES | Serum IFN-γ inhibition rate (%) [1] | Serum IFN-γ inhibition rate (%) [2] |
| --- | --- | --- |
| CNC(=O)c1nnc(NC(=O)C2CC2)cc1Nc1cccc(-c2ncc(S(=N)(=O)C(C)C)cn2)c1OC (single isomer, unassigned) [WX-011A] | 64% | 96% |
| CNC(=O)c1cnc(NC(=O)C2CC2)cc1Nc1cccc(-c2ccc(S(=O)(=O)C(C)C)cn2)c1OC [WX-020] | 40% | 86% |
